Active and inactive are the calls of the source.
Legend:
HeLa = experiment: ATP-based viability loss in HeLa cells – cell-based, CellTiter-Glo luminescence, cherry-pick samples, cytotoxicity control for MITF activator project, dose response (AID 540259); format: functional; details: Homo sapiens
Cytochrome P450 2C9 [1] = target: T1, Cytochrome P450 2C9 (Homo sapiens, UniProt P11712)
Tumor necrosis factor = Tumor necrosis factor (Homo sapiens, UniProt P01375); experiment: analog potency on TNFa NF-kB signaling – cell-based, revised, SAR follow-up (AID 2337); format: functional
[2] = target: Nucleotide-binding oligomerization domain-containing protein 2 (Homo sapiens, UniProt Q9HC29); experiment: PubChem AID 2334; format: functional
[3] = target: T2, Nucleotide-binding oligomerization domain-containing protein 1 (Homo sapiens, UniProt Q9Y239); experiment: blockers of NOD1 pathway activity – revised, SAR follow-up (AID 2333); format: functional
T2 sequence (Q9Y239 whole entry): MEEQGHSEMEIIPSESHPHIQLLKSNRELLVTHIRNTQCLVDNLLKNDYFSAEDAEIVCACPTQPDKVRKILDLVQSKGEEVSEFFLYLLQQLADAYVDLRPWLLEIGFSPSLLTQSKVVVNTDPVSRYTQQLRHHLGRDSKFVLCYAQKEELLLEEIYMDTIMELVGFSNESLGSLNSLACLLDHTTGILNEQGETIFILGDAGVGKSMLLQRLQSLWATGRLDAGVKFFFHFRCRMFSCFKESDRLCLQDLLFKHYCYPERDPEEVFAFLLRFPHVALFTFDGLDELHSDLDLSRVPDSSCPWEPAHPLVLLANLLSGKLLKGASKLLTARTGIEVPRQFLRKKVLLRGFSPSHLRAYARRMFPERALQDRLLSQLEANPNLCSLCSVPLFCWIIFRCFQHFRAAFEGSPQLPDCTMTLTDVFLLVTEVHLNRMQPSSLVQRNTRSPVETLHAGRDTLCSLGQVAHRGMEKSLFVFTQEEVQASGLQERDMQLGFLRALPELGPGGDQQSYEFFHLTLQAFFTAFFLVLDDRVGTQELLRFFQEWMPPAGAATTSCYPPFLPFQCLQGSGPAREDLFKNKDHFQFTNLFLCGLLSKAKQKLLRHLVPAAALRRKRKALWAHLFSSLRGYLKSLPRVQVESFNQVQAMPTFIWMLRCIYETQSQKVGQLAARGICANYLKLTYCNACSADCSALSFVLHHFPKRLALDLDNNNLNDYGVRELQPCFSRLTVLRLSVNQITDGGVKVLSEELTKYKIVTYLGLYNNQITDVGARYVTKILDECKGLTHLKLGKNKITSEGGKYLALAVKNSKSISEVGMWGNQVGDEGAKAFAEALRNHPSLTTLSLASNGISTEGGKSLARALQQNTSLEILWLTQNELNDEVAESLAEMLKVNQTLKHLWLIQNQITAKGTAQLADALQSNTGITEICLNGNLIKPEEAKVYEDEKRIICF

HEK293 [4] = experiment: cells; details: Homo sapiens
[5] = target: T3, Carboxy-terminal domain RNA polymerase II polypeptide A small phosphatase 1 (Homo sapiens, UniProt Q9GZU7); experiment: CTDSP1 inhibitors, concentration-response, biochemical, absorbance readout, ultra-high-throughput screen actives (AID 540297); format: functional
T3 sequence (Q9GZU7 whole entry): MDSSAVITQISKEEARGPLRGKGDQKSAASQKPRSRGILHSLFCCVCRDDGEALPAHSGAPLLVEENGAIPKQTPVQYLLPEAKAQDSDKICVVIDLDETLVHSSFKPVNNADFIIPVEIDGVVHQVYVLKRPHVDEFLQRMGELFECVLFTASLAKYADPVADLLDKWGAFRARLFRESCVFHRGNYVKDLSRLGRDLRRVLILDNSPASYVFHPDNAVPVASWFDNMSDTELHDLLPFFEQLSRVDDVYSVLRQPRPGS

Cytochrome P450 2D6 = Cytochrome P450 2D6 (Homo sapiens, UniProt P10635);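 note: CYP2D6 member of a cytochrome P450 panel assay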
Cytochrome P450 2C9 [6] = target: T1, Cytochrome P450 2C9; remark: listed apart in the source
Cytochrome P450 1A2 = target: T4, Cytochrome P450 1A2 (Homo sapiens, UniProt P05177);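 note: PubChem cytochrome P450 panel assay, CYP1A2 panel member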
T4 sequence (P05177 whole entry): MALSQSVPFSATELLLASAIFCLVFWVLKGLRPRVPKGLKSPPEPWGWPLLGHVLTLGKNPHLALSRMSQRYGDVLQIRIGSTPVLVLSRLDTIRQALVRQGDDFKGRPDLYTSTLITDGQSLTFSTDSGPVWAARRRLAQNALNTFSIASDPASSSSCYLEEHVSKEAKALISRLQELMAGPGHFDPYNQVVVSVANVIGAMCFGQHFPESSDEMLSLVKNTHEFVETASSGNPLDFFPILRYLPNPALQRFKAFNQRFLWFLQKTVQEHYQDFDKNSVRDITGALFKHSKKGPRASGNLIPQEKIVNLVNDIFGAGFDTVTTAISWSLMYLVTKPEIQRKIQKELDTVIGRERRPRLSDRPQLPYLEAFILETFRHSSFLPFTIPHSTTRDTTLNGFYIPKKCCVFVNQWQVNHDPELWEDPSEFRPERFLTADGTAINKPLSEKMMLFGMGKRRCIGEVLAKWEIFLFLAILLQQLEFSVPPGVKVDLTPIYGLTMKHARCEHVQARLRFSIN

Cytochrome P450 2C19 = Cytochrome P450 2C19 (Homo sapiens, UniProt P33261); experiment: Cytochrome panel assay with activity outcomes. Panel member name: p450-cyp2c19 Compounds with AC50 equal or less than 10 uM are considered active; format: functional; details: read-out: AC50
Escherichia coli [7] = experiment: microbe, parasite or virus in culture
Escherichia coli [8] = experiment: microbe, parasite or virus in culture; remark: listed apart in the source
[9] = target: T5, Latent membrane protein 1 (Human herpesvirus 4 (strain B95-8), UniProt P03230); experiment: LMP1 TES1 pathway selectivity over dsRED control – imaging, HEK293T, dual-color eGFP/dsRED, cherry-picks, selectivity assay for LMP1 NF-kB inhibitor project, dose response (AID 588398); format: functional, cell-based
T5 sequence (P03230 whole entry): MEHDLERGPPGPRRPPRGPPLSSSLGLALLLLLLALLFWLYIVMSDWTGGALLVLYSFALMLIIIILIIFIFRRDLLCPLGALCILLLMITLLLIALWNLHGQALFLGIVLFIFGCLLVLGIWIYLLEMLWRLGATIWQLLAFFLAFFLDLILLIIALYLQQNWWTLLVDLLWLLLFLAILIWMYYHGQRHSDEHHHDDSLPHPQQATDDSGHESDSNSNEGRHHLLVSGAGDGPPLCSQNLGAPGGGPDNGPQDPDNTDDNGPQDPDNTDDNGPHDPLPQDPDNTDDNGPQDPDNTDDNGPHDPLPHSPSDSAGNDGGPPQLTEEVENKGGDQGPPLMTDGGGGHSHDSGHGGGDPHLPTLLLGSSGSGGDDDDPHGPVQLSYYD

Nonstructural protein 1 = Nonstructural protein 1 (Influenza A virus, UniProt Q194T2); format: functional, Influenza A virus (A/California/07/2009(H1N1))
HEK293 [10] = experiment: EBV LMP1 TES2 canonical NF-kB signalling blockers – cell-based, HEK293, luciferase, cherry-pick, dose response (AID 588343); format: functional; details: Homo sapiens
[11] = target: Heat shock protein HSP 90-alpha (Homo sapiens, UniProt P07900); format: functional, organism-based

Chain of Nucleotide-binding oligomerization domain-containing protein 2 (Q9HC29 whole entry, the tested form may be a part): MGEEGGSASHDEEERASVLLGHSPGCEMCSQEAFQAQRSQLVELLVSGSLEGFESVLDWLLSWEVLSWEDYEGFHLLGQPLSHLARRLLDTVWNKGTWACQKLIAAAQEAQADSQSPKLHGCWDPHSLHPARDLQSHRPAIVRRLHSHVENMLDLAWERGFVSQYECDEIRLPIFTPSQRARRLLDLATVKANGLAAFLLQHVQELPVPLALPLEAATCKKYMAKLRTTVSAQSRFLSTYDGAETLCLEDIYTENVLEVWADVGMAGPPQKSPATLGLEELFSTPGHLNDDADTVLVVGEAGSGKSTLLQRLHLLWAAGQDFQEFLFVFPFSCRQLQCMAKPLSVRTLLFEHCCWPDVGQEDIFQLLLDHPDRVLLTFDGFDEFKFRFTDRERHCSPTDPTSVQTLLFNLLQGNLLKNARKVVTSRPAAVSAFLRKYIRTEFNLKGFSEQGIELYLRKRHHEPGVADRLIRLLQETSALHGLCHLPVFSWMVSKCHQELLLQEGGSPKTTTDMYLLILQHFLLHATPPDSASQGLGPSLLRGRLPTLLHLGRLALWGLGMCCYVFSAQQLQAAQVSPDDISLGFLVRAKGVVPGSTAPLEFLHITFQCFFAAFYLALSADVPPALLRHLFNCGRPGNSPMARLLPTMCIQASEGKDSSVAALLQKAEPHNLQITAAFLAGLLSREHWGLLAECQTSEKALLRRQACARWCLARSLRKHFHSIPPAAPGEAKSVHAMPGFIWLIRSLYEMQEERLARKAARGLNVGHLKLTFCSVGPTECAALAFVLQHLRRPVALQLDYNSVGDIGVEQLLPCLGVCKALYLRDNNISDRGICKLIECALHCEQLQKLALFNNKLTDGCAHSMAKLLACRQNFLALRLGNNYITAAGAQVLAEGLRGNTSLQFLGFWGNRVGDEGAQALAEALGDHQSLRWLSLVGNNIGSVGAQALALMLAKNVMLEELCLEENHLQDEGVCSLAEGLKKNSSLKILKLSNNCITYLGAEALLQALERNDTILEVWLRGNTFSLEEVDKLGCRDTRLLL
T1 sequence (P11712 whole entry): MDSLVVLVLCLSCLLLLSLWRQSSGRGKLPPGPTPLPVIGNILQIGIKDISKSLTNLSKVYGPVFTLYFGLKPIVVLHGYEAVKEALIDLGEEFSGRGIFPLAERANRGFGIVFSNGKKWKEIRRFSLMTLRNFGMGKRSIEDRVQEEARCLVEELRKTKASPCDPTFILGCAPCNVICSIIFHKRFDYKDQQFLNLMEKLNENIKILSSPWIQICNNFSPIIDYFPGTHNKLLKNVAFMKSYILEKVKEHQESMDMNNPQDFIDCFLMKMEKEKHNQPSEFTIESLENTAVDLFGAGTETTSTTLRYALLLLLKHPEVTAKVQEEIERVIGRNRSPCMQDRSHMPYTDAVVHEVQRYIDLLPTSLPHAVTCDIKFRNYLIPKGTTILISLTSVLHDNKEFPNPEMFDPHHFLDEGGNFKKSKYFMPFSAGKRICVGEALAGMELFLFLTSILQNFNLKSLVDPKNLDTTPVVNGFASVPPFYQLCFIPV
Chain of Tumor necrosis factor (P01375 whole entry, the tested form may be a part): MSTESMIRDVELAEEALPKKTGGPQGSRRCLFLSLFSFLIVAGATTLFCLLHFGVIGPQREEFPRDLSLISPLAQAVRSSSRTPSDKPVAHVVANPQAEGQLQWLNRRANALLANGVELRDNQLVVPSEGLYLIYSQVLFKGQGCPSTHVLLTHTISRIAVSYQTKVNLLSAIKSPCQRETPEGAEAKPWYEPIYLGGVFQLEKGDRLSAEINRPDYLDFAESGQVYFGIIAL
Chain of Nonstructural protein 1 (Q194T2 whole entry): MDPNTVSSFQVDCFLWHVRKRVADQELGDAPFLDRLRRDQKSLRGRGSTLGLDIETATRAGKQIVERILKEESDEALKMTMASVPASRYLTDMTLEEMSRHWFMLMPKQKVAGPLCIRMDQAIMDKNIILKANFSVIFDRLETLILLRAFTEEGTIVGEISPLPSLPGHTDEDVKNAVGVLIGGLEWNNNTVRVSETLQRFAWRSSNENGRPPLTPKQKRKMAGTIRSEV
Chain of Cytochrome P450 2D6 (P10635 whole entry): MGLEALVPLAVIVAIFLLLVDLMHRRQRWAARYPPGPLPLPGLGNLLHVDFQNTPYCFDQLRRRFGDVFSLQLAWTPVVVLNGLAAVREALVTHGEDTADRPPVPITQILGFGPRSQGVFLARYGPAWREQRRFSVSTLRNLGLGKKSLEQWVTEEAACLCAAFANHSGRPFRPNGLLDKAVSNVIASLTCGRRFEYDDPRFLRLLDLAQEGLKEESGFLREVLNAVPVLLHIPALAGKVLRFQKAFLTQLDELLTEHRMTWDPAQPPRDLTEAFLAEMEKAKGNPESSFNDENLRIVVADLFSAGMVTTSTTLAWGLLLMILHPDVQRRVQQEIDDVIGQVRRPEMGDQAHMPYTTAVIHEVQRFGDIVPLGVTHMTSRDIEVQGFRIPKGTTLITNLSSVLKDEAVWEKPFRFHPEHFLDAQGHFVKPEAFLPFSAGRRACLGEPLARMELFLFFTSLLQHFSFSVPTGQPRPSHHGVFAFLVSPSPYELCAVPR
Chain of Cytochrome P450 2C19 (P33261 whole entry): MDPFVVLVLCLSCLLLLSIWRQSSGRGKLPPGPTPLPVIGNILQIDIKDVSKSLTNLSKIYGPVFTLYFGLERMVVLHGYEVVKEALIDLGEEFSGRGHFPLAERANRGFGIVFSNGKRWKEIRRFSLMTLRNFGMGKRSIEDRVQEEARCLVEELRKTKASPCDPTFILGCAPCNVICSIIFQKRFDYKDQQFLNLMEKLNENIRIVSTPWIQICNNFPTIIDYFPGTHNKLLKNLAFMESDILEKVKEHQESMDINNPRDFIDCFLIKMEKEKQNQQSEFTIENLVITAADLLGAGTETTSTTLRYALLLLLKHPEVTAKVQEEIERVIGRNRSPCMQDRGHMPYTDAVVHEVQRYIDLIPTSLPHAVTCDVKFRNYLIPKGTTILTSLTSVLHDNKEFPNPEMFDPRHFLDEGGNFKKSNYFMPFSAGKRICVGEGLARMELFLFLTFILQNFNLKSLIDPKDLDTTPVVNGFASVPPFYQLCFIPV

c1ccc2c(-c3csc(-c4ccncc4)n3)c[nH]c2c1
AC50 (HeLa): 40.5 µM (active)

CC(=O)Nc1nc2ccccc2n1Cc1ccccc1
AC50 (Cytochrome P450 2C9 [1]): 35.5 µM (inconclusive)
IC50 (Tumor necrosis factor): > 20 µM (inactive)
IC50 [2]: > 20 µM (inactive)
IC50 [3]: > 20 µM (inactive)
IC50 (HEK293 [4]): > 20 µM (inactive)

COc1ccccc1-n1cnc2c(c1=O)c1nc3ccccc3nc1n2-c1ccc(C)cc1
IC50 [5]: 8.78 µM (active)

Cc1scc(C(=O)NN=C(S)NCC2CCCO2)c1C (stereo not drawn)
AC50 (Cytochrome P450 2D6): inconclusive
AC50 (Cytochrome P450 2C9 [6]): inconclusive
AC50 (Cytochrome P450 1A2): 11.2 µM (inconclusive)
AC50 (Cytochrome P450 2C19): 6.31 µM (inconclusive)

C[C@H](NC(=O)c1[nH]cnc1C(=O)NCC(=O)OC(C)(C)C)c1ccccc1
AC50 (Escherichia coli [7]): 46.2 µM (active)
AC50 (Escherichia coli [8]): 52.9 µM (active)

c1ccc(-c2ccc3sccc3n2)cc1
AC50 (HeLa): 79 µM (active)

CC(=NNC(=S)N1CCCCCC1)c1ccccn1
AC50 [9]: 4.98 µM (active)
IC50 (Nonstructural protein 1): 3 µM (active)
AC50 (HEK293 [10]): 0.545 µM (active)
AC50 [11]: 3.49 µM (active)

Cc1cc(C)c(S(=O)(=O)N2CCN(C(=O)c3ccccc3OCc3c(C)noc3C)CC2)c(C)c1
AC50 [9]: 91.5 µM (active)

Cc1nonc1C(=O)NN=Cc1ccc([N+](=O)[O-])o1
IC50 (Tumor necrosis factor): > 20 µM (inactive)
IC50 [2]: 19.7 µM (active)
IC50 [3]: 16.4 µM (active)
IC50 (HEK293 [4]): > 20 µM (inactive)

— ChEMBL document CHEMBL1201862, “PubChem BioAssay data set” (2004)
